Reference: BindingDB's records for doi:10.1124/mol.57.3.642 (National Institute On Drug Abuse, 2000)
Structures can show the parent of a compound that is named as a salt.

How the values were obtained:
[1] = target: Nicotinic acetylcholine receptor (Rattus leucopus, UniProt Q62594)
[2] = target: Neuronal acetylcholine receptor subunit alpha-7 (Rattus norvegicus, UniProt Q05941)
[3] = target: Neuronal acetylcholine receptor subunit alpha-4 (Rattus norvegicus, UniProt P09483)
[4] = target: Neuronal acetylcholine receptor subunit alpha-9 (Rattus norvegicus, UniProt P43144)
Chain of Neuronal acetylcholine receptor subunit alpha-9 (P43144 whole entry): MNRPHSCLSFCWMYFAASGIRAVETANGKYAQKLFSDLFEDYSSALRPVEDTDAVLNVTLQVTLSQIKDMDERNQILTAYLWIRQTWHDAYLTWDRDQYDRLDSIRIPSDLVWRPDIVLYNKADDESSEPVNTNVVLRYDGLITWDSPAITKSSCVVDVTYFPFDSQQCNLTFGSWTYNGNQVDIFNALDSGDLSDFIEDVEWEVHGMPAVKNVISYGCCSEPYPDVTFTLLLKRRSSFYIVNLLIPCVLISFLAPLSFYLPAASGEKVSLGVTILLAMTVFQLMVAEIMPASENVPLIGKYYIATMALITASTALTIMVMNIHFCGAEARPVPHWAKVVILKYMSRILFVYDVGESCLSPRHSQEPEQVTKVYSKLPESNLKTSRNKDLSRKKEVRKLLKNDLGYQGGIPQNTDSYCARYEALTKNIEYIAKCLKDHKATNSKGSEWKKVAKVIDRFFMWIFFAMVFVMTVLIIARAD

[5] = target: Neuronal acetylcholine receptor subunit alpha-3 (Rattus norvegicus, UniProt P04757)
Chain of Neuronal acetylcholine receptor subunit alpha-3 (P04757 whole entry): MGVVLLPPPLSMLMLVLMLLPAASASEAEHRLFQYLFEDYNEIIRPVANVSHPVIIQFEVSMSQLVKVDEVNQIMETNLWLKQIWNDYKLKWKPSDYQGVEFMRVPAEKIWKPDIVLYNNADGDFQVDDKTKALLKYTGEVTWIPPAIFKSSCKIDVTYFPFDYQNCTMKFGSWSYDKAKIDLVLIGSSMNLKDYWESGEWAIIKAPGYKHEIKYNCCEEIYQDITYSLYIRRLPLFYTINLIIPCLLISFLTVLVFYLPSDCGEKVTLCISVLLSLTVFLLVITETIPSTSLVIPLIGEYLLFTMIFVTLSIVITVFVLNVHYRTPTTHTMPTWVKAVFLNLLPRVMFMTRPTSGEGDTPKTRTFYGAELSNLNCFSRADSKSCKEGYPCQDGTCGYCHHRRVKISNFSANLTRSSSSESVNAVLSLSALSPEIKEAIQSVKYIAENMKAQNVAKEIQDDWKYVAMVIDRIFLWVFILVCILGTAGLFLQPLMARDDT

Chain of Neuronal acetylcholine receptor subunit alpha-4 (P09483 whole entry): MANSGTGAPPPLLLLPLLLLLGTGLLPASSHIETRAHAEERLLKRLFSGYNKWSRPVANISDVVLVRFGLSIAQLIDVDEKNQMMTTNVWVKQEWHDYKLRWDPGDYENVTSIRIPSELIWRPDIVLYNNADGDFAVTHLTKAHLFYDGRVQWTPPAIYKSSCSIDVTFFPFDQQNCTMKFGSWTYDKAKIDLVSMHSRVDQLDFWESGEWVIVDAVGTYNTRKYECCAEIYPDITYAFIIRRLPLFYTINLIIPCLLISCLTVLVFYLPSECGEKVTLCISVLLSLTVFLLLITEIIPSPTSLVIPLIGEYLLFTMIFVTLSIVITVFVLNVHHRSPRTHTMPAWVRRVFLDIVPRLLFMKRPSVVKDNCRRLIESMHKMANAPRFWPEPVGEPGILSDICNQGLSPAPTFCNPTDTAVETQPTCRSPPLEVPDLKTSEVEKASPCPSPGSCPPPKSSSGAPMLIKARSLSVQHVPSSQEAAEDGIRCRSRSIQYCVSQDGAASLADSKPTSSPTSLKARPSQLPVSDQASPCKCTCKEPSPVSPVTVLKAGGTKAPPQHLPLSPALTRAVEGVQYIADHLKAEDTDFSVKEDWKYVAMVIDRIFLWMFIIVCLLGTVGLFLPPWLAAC
Chain of Neuronal acetylcholine receptor subunit alpha-7 (Q05941 whole entry): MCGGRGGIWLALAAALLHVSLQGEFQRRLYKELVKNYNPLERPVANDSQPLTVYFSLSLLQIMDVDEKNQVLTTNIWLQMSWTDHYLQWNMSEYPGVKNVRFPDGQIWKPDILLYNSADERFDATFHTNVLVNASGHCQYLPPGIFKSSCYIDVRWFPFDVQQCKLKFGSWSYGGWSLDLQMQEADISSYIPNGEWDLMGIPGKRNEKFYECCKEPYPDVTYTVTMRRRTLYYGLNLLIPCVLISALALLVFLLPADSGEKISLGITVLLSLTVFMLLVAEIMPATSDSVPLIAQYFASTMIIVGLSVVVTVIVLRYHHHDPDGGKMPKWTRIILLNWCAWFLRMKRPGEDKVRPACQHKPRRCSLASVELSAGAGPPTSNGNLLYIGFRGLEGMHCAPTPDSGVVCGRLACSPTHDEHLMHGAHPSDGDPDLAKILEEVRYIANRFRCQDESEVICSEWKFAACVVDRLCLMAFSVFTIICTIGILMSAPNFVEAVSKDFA
Chain of Nicotinic acetylcholine receptor (Q62594 whole entry): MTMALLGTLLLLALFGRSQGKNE

Compound: CNC(=O)Oc1ccc2c(c1)[C@]1(C)CCN(C)C1N2C (stereo partly drawn)
- Ki [1]: > 10000 nM

Compound: c1cncc(OC[C@@H]2CCN2)c1
- Ki [2]: 17 nM
- Ki [3]: 0.01 nM
- Ki [4]: 320 nM

Compound: C=C(C=O)C[C@H]1C[C@H](O)[C@]2(C)O[C@@H]3C[C@@H]4O[C@@H]5C[C@]6(C)O[C@]7(C)CC[C@@H]8O[C@@H]9C[C@]%10(C)O[C@@H]%11C(C)=CC(=O)O[C@H]%11C[C@H]%10O[C@H]9C[C@@H](C)[C@H]8O[C@H]7C[C@H]6O[C@@]5(C)C/C=C\[C@H]4O[C@H]3C[C@H]2O1
- Ki [1]: 2500 nM

Compound: O=C(CCCN1CCC(O)(c2ccc(Cl)cc2)CC1)c1ccc(F)cc1 [4-[4-(4-Chloro-phenyl)-4-hydroxy-piperidin-1-yl]-1-(4-fluoro-phenyl)-butan-1-one;propionate(HCl)]
- Ki [1]: > 10000 nM

Compound: O=c1cccc2n1C[C@H]1CNC[C@H]2C1 [(1S,9R)-7,11-diazatricyclo[7.3.1.0~2,7~]trideca-2,4-dien-6-one]
- Ki [2]: 260 nM
- Ki [5]: 54 nM
- Ki [3]: 0.18 nM
- Ki [4]: 190 nM

Compound: CN1CCc2cccc3c2[C@H]1Cc1ccc(O)c(O)c1-3 [APOKYN]
- Ki [1]: > 10000 nM

Compound: CN1[C@@H]2CC[C@H]1CC(OC(=O)[C@H](CO)c1ccccc1)C2 (stereo partly drawn) [CAS_51-55-8]
- Ki [1]: > 10000 nM

Compound: COc1cc2c3cc1Oc1cc(ccc1O)CC1c4c(cc(OC)c(O)c4Oc4ccc(cc4)CC3[N+](C)(C)CC2)CC[N+]1(C)C (stereo not drawn) [CAS_8063-06-7]
- Ki [1]: 730 nM

Compound: Ic1ccc(C2CC3CCC2N3)cn1 (stereo not drawn) [IPH]
- Ki [2]: 30 nM
- Ki [5]: 0.11 nM
- Ki [3]: 0.02 nM
- Ki [4]: 6.5 nM

Compound: C=CCN1CC[C@]23c4c5ccc(O)c4O[C@H]2C(=O)CC[C@@]3(O)[C@H]1C5 [[17-(2,3-3H-2-propenyl)]-4,5a-epoxy-3,14-dihydroxymorphinan-6-one]
- Ki [1]: > 10000 nM
